The text below walks through data of ChEMBL document CHEMBL1201862, “PubChem BioAssay data set” (2004).

Assay [1] addresses T1, Short transient receptor potential channel 4 (Mus musculus, UniProt Q9QUQ5).
T1 sequence (Q9QUQ5 whole entry): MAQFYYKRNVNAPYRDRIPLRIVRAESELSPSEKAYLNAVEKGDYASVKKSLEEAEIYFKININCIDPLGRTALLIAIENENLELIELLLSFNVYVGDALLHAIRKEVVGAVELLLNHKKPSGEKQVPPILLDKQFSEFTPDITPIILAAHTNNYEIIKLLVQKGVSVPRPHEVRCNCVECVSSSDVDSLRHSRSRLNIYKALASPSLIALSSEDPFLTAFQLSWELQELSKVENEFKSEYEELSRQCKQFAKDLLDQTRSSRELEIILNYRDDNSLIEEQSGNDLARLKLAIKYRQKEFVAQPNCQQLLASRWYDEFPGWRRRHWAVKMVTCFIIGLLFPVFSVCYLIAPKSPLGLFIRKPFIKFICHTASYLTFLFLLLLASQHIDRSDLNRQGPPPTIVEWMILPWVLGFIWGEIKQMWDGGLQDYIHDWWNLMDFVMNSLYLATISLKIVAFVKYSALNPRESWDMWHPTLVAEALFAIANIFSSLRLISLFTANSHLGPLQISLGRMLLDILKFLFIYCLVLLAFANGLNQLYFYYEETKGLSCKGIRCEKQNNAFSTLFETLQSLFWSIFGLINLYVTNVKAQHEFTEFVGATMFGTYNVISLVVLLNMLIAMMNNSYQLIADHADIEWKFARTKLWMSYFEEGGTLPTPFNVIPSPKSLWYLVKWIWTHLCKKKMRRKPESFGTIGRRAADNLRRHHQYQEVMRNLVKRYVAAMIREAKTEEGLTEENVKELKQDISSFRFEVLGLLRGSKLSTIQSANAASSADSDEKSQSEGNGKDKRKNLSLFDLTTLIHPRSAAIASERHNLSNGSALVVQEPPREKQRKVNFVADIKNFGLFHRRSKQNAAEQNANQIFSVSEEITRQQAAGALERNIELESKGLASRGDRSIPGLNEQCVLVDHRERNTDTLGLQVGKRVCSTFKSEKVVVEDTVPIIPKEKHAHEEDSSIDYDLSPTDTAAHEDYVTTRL
The assay can be described thus: calcium entry via TRPC4 opening agents – cell-based, HEK293 TRPC4/mu-opioid, Fluo-4 calcium, dose response (AID 434937). The class given is functional.

The target in assay [2] is Delta-type opioid receptor (Homo sapiens, UniProt P41143). The assay can be described thus: Counterscreen for agonists of heterodimerization of the mu 1 (OPRM1) and delta 1 (OPRD1) opioid receptors: Luminescence-based cell-based high throughput dose response assay to identify agonists of OPRD1 homodimerization. [Related pubchem assays (depositor defined):AID504326, AID504355, AID504692, AID504904, AID504905]. It is filed as functional.
Delta-type opioid receptor, sequence (P41143 whole entry): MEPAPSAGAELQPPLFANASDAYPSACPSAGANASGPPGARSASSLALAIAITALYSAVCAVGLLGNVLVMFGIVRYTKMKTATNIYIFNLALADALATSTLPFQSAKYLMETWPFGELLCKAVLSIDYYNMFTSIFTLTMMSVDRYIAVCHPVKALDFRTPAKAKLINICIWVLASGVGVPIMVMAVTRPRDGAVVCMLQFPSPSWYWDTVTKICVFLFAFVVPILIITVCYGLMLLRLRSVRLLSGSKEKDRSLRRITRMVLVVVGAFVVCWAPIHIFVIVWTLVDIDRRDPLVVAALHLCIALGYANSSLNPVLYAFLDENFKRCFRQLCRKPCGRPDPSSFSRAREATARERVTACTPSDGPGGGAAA

A further assay has as its target Mu-type opioid receptor (Homo sapiens, UniProt P35372). The assay can be described thus: Counterscreen for agonists of heterodimerization of the mu 1 (OPRM1) and delta 1 (OPRD1) opioid receptors: Luminescence-based cell-based high throughput dose response assay to identify agonists of OPRM1 homodimerization. It is filed as functional. On the technique in general: Counterscreens check selectivity or assay interference.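 Also: U2OS cells expressing OPRM1 and beta-arrestin as split beta-galactosidase partners.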

The target of assay [3] is 5-hydroxytryptamine receptor 5A (Homo sapiens, UniProt P47898). Kind of assay: Counterscreen for agonists of OPRM1-OPRD1 heterodimerization: luminescence-based cell-based high throughput dose response assay to identify agonists of 5-hydroxytryptamine (serotonin) 5A receptor (HTR5A). [Related pubchem assays (depositor defined):AID504326, AID504355, AID504692, AID504904, AID504905]. It is filed as functional.
5-hydroxytryptamine receptor 5A, sequence (P47898 whole entry): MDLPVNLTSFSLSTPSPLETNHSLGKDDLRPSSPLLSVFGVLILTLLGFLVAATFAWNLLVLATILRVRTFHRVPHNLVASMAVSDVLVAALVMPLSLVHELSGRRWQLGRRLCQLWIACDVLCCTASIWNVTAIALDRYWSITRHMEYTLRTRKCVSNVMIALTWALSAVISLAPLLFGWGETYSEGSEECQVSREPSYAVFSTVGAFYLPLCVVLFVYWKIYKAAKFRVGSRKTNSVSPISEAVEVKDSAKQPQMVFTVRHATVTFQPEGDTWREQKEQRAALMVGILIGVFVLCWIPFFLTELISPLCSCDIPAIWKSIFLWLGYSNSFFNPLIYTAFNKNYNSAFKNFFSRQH

The target of assay [4] is T2, Corticotropin-releasing factor receptor 2/Corticotropin-releasing factor-binding protein (Homo sapiens, UniProt P24387+Q13324).
T2 sequence (Q13324 whole entry): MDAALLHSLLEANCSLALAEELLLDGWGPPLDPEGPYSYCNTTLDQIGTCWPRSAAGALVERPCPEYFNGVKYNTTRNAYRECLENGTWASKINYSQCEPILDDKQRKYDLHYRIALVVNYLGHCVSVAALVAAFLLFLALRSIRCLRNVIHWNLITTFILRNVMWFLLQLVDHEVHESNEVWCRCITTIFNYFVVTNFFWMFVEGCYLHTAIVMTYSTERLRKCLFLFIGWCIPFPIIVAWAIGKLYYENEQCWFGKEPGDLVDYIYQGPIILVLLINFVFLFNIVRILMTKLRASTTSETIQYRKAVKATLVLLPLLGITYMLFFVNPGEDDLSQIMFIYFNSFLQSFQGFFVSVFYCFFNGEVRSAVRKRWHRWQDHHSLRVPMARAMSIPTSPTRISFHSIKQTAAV
T2 sequence (P24387 whole entry): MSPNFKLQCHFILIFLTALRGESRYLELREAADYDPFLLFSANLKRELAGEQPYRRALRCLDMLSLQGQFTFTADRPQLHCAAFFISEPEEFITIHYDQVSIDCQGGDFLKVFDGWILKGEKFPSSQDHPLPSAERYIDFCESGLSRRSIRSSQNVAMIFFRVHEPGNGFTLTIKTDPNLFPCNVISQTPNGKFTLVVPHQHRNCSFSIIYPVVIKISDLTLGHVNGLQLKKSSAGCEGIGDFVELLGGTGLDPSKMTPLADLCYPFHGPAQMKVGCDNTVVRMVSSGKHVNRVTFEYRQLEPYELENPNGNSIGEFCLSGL
Kind of assay: Dose Response confirmation of uHTS hits for small molecule antagonists of the CRF-binding protein and CRF-R2 receptor complex. The class given is functional. As to conditions: read-out: IC50_Mean.

Assay [5] concerns the target T2, Corticotropin-releasing factor receptor 2/Corticotropin-releasing factor-binding protein. The assay can be described thus: activators of CRF receptor 2 with binding protein – uHTS hits, confirmation (AID 602473). As to conditions: read-out: EC50_Mean. The class given is functional.
The next assay deals with T3, Caspase-3 (Homo sapiens, UniProt P42574).
T3 sequence (P42574 whole entry): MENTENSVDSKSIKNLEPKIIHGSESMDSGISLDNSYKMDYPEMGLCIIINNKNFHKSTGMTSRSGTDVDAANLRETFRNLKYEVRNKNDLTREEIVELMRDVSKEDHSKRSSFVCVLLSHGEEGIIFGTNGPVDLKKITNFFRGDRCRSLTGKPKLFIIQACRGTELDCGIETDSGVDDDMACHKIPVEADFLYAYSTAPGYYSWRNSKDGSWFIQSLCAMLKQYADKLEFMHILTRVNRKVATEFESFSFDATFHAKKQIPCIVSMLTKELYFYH
The class given is functional.

For assay [6], the target named is T4, Sentrin-specific protease 7 (Homo sapiens, UniProt Q9BQF6).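 Also: Luminescence-based dose-response confirmation of ultra-high-throughput screening hits, measuring inhibition of SENP7.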
T4 sequence (Q9BQF6 whole entry): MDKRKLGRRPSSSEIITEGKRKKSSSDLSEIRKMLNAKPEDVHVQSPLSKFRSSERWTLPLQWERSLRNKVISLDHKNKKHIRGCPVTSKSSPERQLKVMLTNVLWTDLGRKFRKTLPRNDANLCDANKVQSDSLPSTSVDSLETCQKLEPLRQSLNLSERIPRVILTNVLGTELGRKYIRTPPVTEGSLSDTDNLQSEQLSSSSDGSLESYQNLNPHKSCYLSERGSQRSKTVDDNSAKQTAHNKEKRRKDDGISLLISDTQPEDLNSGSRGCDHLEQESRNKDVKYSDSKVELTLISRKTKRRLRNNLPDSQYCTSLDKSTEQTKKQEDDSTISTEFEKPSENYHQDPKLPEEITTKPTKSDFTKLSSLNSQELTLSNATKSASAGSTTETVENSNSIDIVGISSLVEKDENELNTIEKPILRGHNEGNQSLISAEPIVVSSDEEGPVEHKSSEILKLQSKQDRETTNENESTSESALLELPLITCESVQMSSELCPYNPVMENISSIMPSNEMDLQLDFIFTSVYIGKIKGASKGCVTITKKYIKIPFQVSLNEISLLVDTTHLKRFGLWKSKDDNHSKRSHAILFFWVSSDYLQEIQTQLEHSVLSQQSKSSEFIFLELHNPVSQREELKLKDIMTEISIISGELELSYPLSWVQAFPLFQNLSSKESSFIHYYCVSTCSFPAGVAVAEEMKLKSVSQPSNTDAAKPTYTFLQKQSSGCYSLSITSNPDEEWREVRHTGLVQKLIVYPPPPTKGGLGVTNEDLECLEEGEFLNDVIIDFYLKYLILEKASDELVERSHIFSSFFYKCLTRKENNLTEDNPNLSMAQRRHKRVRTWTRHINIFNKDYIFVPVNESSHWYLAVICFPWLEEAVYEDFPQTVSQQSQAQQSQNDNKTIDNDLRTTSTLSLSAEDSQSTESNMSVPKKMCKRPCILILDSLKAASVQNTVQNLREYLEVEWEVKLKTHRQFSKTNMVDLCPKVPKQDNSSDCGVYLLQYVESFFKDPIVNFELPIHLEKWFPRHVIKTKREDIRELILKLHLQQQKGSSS
It is filed as functional.

Assay [7] has as its target T5, Sentrin-specific protease 6 (Homo sapiens, UniProt Q9GZR1).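 Also: Luminescence-based dose-response confirmatory assay of SENP6 inhibition, following up an ultra-high-throughput screen.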
T5 sequence (Q9GZR1 whole entry): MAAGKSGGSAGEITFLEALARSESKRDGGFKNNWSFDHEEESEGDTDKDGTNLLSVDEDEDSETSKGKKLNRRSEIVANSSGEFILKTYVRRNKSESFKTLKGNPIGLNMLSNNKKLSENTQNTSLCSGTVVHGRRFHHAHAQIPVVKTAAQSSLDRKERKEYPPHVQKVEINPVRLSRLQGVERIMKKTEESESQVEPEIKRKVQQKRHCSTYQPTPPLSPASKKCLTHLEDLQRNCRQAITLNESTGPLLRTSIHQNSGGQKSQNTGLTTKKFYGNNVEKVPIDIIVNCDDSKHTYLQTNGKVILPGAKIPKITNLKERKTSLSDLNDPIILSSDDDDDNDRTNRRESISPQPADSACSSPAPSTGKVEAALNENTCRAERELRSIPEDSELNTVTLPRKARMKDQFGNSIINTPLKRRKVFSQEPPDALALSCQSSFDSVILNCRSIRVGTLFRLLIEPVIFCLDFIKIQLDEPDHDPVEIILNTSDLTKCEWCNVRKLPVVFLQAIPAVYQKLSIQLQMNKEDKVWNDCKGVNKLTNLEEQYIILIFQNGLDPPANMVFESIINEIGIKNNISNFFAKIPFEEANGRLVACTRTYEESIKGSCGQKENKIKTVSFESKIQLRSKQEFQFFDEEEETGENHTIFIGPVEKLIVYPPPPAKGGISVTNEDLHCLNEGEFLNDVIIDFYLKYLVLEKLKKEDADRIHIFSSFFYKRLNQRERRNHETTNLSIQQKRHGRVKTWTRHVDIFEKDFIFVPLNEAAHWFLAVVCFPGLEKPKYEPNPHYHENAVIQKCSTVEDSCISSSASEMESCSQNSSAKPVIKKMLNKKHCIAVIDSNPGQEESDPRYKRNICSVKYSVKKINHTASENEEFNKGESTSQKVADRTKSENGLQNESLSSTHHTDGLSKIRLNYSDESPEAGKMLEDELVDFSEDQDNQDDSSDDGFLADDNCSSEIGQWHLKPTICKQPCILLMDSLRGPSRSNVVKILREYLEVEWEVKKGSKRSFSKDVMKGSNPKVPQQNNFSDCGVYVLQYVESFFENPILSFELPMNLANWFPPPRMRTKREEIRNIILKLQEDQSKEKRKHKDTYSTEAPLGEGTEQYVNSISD
The class given is functional.

For assay [8], the target named is T6, Sentrin-specific protease 8 (Homo sapiens, UniProt Q96LD8).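 Also: luminescence read-out of SENP8 inhibition, dose-response confirmation following an ultra-high-throughput screen.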
T6 sequence (Q96LD8 whole entry): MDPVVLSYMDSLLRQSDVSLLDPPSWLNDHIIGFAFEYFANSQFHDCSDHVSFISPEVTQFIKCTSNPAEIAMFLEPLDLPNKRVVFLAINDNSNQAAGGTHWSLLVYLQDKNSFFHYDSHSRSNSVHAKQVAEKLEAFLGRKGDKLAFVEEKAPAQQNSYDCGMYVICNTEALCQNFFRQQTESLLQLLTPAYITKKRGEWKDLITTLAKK
The class given is functional.

Assay [9] is described as follows: viability of uninfected HEp-2 cells – cell-based, HTS, cytotoxicity control for RSV inhibitor project, dose response (AID 2410). The class given is functional. As to conditions: human respiratory syncytial virus.
Another assay addresses Cytochrome P450 3A4 (Homo sapiens, UniProt P08684).

Activity calls are given as the source filed them.
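For AC50 in this document: CYP3A4 tested as one member of a cytochrome P450 panel screen.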

Cytochrome P450 3A4, sequence (P08684 whole entry): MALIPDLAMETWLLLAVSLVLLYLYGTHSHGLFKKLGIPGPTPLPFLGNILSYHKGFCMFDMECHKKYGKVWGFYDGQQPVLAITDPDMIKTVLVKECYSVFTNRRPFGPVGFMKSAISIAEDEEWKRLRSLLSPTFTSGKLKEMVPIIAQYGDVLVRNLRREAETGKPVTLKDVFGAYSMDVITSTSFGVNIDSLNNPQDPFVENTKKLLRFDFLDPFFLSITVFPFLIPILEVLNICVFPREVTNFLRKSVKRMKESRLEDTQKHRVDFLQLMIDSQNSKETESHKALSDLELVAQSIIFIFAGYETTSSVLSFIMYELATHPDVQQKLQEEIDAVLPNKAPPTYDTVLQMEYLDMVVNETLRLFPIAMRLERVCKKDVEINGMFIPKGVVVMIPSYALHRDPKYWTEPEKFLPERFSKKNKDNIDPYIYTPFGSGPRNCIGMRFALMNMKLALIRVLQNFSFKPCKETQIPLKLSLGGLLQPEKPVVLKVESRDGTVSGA
Mu-type opioid receptor, sequence (P35372 whole entry): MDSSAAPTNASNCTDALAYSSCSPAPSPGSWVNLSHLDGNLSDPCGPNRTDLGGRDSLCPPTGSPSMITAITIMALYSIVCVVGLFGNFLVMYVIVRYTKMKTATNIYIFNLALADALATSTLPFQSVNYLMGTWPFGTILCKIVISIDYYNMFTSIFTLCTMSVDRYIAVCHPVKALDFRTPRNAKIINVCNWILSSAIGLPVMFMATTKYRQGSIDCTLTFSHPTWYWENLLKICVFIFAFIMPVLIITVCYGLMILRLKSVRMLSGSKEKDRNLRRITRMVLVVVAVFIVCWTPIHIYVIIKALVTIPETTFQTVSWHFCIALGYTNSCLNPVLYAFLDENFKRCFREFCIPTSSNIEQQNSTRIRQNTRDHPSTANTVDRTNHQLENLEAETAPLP

On to `COc1ccc(-c2nn(-c3ccccc3C)cc2CNCc2cccnc2)cc1F`, for which the EC50 in assay [1] is 3.76 µM (active); in [2] it was > 92.5 µM (inactive); at Mu-type opioid receptor, > 92.5 µM (inactive); in assay [3], > 92.5 µM (inactive); in assay [5], > 53 µM (inactive). Further, in [4], the IC50 was > 47.1 µM (inactive).

Turning to `CC(C)CSC1=NSC2=NC(=O)/C(=C\c3cccs3)C(=N)N12`, the IC50 on Caspase-3 was 26.8 µM (active); in assay [6], 24.2 µM (active); in assay [7], 14.9 µM (active); in assay [8] it was 18.5 µM (active).

Turning to `Oc1c(-c2cc(-c3ccco3)[nH]n2)ccc2ccccc12`, the IC50 is 59.7 µM (active) at Caspase-3, 4.87 µM (active) in assay [6], 15 µM (active) in [7] and 19.3 µM (active) in assay [8].

For the compound `O=C(COc1ccc2ccccc2c1)Nc1ccccc1C(=O)O`, the 50% cytotoxic concentration (CC50) in assay [9] is 32.9 µM (active). For the same compound, the IC50 at Caspase-3 is 15.2 µM (active); in [6] it was 13.4 µM (active); in [7], 25.5 µM (active); in assay [8], 43.4 µM (active); in “cells”, 41.5 µM (active).

With `C/C(=N\NC(=O)c1ccc(Br)cc1)c1ccccc1`, the IC50 on Caspase-3 was 4.06 µM (active); in assay [6] it was 4.62 µM (active); in assay [7], 6.55 µM (active); in assay [8], > 100 µM (inactive). The AC50 at Cytochrome P450 3A4 is 15.8 µM (inconclusive).

A word on the CC50: it is the concentration giving 50% cytotoxicity. A word on the AC50: it is the concentration giving half of the maximal activity seen.
